Key:
Assay type in all cases: biochemical
[1] = target: murine iNOS (Mus musculus, UniProt P29477); assay: NOS enzyme inhibition assay, iNOS; conditions: for Selectivity n/i: ratio Ki iNOS to Ki nNOS
[2] = target: bovine eNOS (Bos taurus, UniProt P29473); assay: NOS enzyme inhibition assay, eNOS; conditions: for Ki: bovine eNOS; for Selectivity n/e: ratio Ki eNOS to Ki nNOS
[3] = target: rat nNOS (Rattus norvegicus, UniProt P29476); assay: NOS enzyme inhibition assay, nNOS; conditions: for Ki: rat nNOS
Sequence of rat nNOS (P29476 whole entry): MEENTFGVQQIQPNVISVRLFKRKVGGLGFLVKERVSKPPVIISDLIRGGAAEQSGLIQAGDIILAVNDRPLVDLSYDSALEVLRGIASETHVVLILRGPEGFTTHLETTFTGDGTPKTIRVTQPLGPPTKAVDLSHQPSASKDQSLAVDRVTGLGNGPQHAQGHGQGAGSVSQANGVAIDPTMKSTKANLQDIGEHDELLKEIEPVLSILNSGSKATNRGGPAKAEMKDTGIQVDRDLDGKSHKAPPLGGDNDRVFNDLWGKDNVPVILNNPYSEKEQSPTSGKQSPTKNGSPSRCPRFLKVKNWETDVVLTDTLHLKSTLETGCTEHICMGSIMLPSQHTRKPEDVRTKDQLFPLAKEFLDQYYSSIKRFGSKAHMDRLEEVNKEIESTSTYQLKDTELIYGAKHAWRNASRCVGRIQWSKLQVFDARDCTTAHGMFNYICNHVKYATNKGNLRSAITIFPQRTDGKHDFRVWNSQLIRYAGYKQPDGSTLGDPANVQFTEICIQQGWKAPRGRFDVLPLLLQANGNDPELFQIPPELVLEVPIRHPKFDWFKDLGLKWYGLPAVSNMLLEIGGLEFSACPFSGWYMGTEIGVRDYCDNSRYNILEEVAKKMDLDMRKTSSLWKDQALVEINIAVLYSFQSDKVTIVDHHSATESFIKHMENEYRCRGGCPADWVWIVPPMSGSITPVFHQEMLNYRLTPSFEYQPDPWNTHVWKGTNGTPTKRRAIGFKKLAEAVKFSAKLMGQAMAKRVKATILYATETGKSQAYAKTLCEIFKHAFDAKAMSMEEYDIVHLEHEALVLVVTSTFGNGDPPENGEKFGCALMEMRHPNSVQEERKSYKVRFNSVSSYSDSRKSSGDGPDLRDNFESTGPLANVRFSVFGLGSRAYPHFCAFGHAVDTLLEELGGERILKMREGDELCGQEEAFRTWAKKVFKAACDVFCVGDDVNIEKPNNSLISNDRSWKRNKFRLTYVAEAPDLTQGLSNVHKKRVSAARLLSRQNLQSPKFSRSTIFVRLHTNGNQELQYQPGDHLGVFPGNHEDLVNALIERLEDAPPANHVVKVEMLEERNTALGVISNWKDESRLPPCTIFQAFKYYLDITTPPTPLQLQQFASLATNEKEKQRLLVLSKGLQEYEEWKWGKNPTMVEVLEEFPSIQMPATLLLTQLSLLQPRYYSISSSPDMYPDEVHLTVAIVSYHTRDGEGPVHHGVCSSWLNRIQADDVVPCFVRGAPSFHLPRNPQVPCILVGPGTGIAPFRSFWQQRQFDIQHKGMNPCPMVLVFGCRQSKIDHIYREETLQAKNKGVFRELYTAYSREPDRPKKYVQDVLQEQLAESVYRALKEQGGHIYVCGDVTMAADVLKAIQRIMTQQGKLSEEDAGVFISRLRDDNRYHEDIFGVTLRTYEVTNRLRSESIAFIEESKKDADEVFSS

[4] = murine iNOS, KM 8.2 μM, Ki = IC50/(1 + [S]/KM), Table 2
[5] = KM 1.7 μM, Ki = IC50/(1 + [S]/KM), Table 2
[6] = KM 1.3 μM, Ki = IC50/(1 + [S]/KM), Table 2

Sequence of bovine eNOS (P29473 whole entry): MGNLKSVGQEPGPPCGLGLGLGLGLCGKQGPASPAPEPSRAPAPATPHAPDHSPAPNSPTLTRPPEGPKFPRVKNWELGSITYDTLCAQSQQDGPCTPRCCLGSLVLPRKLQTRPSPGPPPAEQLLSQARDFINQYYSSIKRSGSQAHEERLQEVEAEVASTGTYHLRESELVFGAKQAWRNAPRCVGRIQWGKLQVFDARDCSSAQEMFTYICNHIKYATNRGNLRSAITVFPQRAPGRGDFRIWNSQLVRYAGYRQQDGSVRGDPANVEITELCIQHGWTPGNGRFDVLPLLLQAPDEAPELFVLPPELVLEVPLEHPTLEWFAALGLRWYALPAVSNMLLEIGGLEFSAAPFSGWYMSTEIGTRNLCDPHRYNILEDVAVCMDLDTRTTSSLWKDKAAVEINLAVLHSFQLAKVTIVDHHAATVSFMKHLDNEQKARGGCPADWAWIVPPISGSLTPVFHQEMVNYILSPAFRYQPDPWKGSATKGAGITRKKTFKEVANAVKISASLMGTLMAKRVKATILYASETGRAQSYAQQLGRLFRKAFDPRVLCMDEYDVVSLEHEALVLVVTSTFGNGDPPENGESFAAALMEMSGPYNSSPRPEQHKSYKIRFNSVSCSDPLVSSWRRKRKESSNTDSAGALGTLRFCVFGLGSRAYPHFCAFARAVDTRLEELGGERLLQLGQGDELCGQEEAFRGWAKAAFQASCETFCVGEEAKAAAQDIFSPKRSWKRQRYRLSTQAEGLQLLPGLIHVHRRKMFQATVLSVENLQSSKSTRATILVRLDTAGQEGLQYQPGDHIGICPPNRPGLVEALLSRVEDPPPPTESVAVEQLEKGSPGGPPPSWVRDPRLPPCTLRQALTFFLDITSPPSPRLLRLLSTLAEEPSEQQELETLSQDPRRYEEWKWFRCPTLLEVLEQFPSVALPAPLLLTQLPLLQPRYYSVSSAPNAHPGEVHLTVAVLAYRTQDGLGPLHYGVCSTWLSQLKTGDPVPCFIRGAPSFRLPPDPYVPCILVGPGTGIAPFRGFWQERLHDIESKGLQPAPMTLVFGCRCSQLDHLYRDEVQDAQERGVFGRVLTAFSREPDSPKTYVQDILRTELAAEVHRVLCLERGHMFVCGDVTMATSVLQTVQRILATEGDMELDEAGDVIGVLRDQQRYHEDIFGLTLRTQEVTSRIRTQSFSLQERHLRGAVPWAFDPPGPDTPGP

| Ki ([1]; in vitro, Table 1) | Selectivity n/i ([1]; Table 1) | Ki ([2]; in vitro, Table 1) | Selectivity n/e ([2]; Table 1) | Ki ([3]; in vitro, Table 1) | n/i, ratio of Ki (iNOS) to nNOS ([1]; Table 2) | Ki [1, 4] | n/e, ratio of Ki (eNOS) to nNOS ([2]; Table 2) | Ki [2, 5] | Ki [3, 6] | nNOS selectivity over eNOS compared with Ji19 ([2]; comment on Table 2) | nNOS potency compared with Ji19 ([3]; comment on Table 2) | Structure (SMILES) |
| --- | --- | --- | --- | --- | --- | --- | --- | --- | --- | --- | --- | --- |
| 41.1 µM | 90.6 | 9.02 µM | 19.9 | 0.453 µM | – | – | – | – | – | – | – | Cc1cc(N)nc(C[C@@H]2CNC[C@@H]2OCCCOc2cc(F)cc(Cl)c2)c1 [25d] |
| 12.2 µM | 23.7 | 2.68 µM | 5.2 | 0.516 µM | – | – | – | – | – | – | – | Cc1cc(N)nc(C[C@@H]2CNC[C@@H]2OCCCOc2cc(C(F)(F)F)cc(C(F)(F)F)c2)c1 [25f] |
| – | – | – | – | – | 91 | 83.8 µM | 37 | 33.8 µM | 0.922 µM | – | – | Cc1cc(N)nc(C[C@@H]2CNC[C@@H]2OCCCCCc2cccc(F)c2)c1.Cl.Cl [HH001] |
| 14.6 µM | 5.8 | 5.06 µM | 2.0 | 2.49 µM | – | – | – | – | – | – | – | Cc1cc(N)nc(C[C@@H]2CNC[C@@H]2OCCCOc2ccc(F)c(C(F)(F)F)c2)c1 [25a] |
| – | – | – | – | – | 55 | 35.1 µM | 121 | 77 µM | 0.637 µM | – | – | Cc1cc(N)nc(C[C@@H]2CNC[C@@H]2OCCC/C=C/c2cccc(F)c2)c1 [HH003, 6-(((3R,4R)-4-(((E)-5-(3-fluorophenyl)pent-4-en-1-yl)oxy)pyrrolidin-3-yl)methyl)-4-methylpyridin-2-amine] |
| – | – | – | – | – | 52 | 468 µM | 4 | 34 µM | 9.06 µM | – | – | Cc1cc(N)nc(C[C@H]2CNC[C@H]2OCCCCCc2cccc(F)c2)c1.Cl.Cl [HH004] |
| – | – | – | – | – | 461 | 106 µM | 155 | 35.6 µM | 0.23 µM | – | – | Cc1cc(N)nc(C[C@@H]2CNC[C@@H]2OCCCCCc2cc(F)cc(Cl)c2)c1 [HH002, 6-(((3R,4R)-4-((5-(3-chloro-5-fluorophenyl)pentyl)oxy)pyrrolidin-3-yl)methyl)-4-methylpyridin-2-amine] |
| 25.6 µM | 27.5 | 1.38 µM | 1.5 | 0.931 µM | – | – | – | – | – | – | – | Cc1cc(N)nc(C[C@@H]2CNC[C@@H]2OCCCOc2cc(Cl)cc(C(F)(F)F)c2)c1 [25e] |
| – | – | – | – | – | 9 | 134 µM | 4 | 69 µM | 15.4 µM | – | – | Cc1cc(N)nc(C[C@H]2CNC[C@H]2OCCC/C=C/c2cccc(F)c2)c1.Cl.Cl [HH005] |
| 18.5 µM | 5.5 | 10.5 µM | 3.1 | 3.34 µM | – | – | – | – | – | – | – | Cc1cc(N)nc(C[C@@H]2CNC[C@@H]2OCCCOc2ccc(F)c(Cl)c2)c1 [25b] |
| 32.4 µM | 19.3 | 5 µM | 3.0 | 1.67 µM | – | – | – | – | – | – | – | Cc1cc(N)nc(C[C@@H]2CNC[C@@H]2OCCCOc2cc(F)cc(C(F)(F)F)c2)c1 [25c] |

More lines, now with the values behind:

| Structure (SMILES) | Ki ([1]; in vitro, Table 1) | Selectivity n/i ([1]; Table 1) | Ki ([2]; in vitro, Table 1) | Selectivity n/e ([2]; Table 1) | Ki ([3]; in vitro, Table 1) | n/i, ratio of Ki (iNOS) to nNOS ([1]; Table 2) | Ki [1, 4] | n/e, ratio of Ki (eNOS) to nNOS ([2]; Table 2) | Ki [2, 5] | Ki [3, 6] | nNOS selectivity over eNOS compared with Ji19 ([2]; comment on Table 2) | nNOS potency compared with Ji19 ([3]; comment on Table 2) |
| --- | --- | --- | --- | --- | --- | --- | --- | --- | --- | --- | --- | --- |
| Cc1cc(N)nc(C[C@@H]2CNC[C@@H]2OCCCCOc2cc(F)cc(Cl)c2)c1.Cl.Cl [Ji23] | – | – | – | – | – | 106 | 12.4 µM | 37 | 4.37 µM | 0.117 µM | – | – |
| Cc1cc(N)nc(C[C@H]2CNC[C@H]2OCCCCNc2ccccn2)c1.Cl.Cl.Cl [Ji21] | – | – | – | – | – | 27 | 0.973 µM | 157 | 5.67 µM | 0.036 µM | – | – |
| Cc1cc(N)nc(C[C@@H]2CNC[C@@H]2OCCCCOc2cc(F)cc(F)c2)c1.Cl.Cl [Ji22] | – | – | – | – | – | 32 | 38.1 µM | 122 | 146 µM | 1.2 µM | – | – |
| Cc1cc(N)nc(C[C@@H]2CNC[C@@H]2OCCCCCc2cccc(N)c2)c1 [HH008, 6-(((3R,4R)-4-((5-(3-aminophenyl)pentyl)oxy)pyrrolidin-3-yl)methyl)-4-methylpyridin-2-amine] | – | – | – | – | – | 619 | – | 1117 | – | – | – | – |
| COc1ccnc(/C=C/CCO[C@H]2CNC[C@H]2Cc2cc(C)cc(N)n2)c1 [compound 23] | 2.48 µM | 7.1 | 2.22 µM | 6.3 | 0.351 µM | – | – | – | – | – | – | – |
| Cc1ccnc(CCCCO[C@H]2CNC[C@H]2Cc2cc(C)cc(N)n2)c1 [22b] | 17.9 µM | 16.5 | 25.5 µM | 23.6 | 1.08 µM | – | – | – | – | – | – | – |
| Cc1cc(N)nc(C[C@@H]2CNC[C@@H]2OCCCCNc2ccccn2)c1.Cl.Cl.Cl [Ji20] | – | – | – | – | – | 54 | 0.491 µM | 154 | 1.39 µM | 0.009 µM | lower nNOS selectivity over eNOS | higher nNOS potency |
| Cc1cc(N)nc(C[C@@H]2CNC[C@@H]2OCCCCc2ccccn2)c1 [22a] | 12.5 µM | 5.4 | 15.9 µM | 6.8 | 2.34 µM | – | – | – | – | – | – | – |
| COc1ccnc(CCCCO[C@H]2CNC[C@H]2Cc2cc(C)cc(N)n2)c1 [22c] | 5.44 µM | 31.3 | 5.47 µM | 31.5 | 0.174 µM | – | – | – | – | – | – | – |

— patent US8557552B2, “Selective neuronal nitric oxide synthase inhibitors” (Northwestern University, priority 2011, dated 2013)
